Active and inactive are the calls of the source. The rule behind the calls is not given here.

The nature of the series: Cytotoxicity activity against human HepG2 cells assessed by CellTiter-Glo luminescent cell viability assay. Format: toxicity, cell-based. Also on record: assay stage confirmatory assay, source tissue liver. Conditions: HepG2 cells, read-out: IC50 relative. (In general: Cellular ATP, detected with luciferase, serves as a proxy for viable cell number.)

With `CC(C)Oc1cc(O)c2c(=O)c(-c3ccc(O)cc3)coc2c1`, the CC50 is 15.6 µM (active).
The same measure for `O=c1c2ccccc2cnn1-c1nc2ccccc2[nH]1`: 5.2 µM (active).
Consider `CCS(=O)(=O)N1CCc2ccc(NC(=O)Nc3cccc(C#N)c3)cc21`, for which the CC50 was 5.2 µM (active).
Take `CN1C(=O)c2cccc3c(S(=O)(=O)NC4CCCCC4)ccc1c23`: the CC50 was 50 µM (inactive).
The value for `COc1ccc(NS(=O)(=O)c2ccc3onc(C(=O)N4CCCC4)c3c2)cc1` was 7.1 µM (active).
The same measure for `CN(C)CCNC(=O)Cn1c(-c2ccccc2)nn(-c2ccc(Cl)cc2)c1=O`: 6.5 µM (active); for `O=c1cnnc(NCc2ccccc2)n1Cc1ccccc1`: 4.5 µM (active); for `CCCCc1ccc(-c2cnn3cccnc23)cc1`: 8.3 µM (inactive).
The value for `Cc1cccnc1N1CCN(c2cc([C@H]3C[C@@H](N)C3)nc(N)n2)CC1` was 11.1 µM (active); that for `CC(C)NC(=O)N1CC(Oc2ccc(-c3noc(C4CC4)n3)cc2)C1` was 2.6 µM (active).
Regarding `CCn1c(=O)c2sc(N3CCCC3)nc2n(CC(=O)Nc2ccc(OC)cc2)c1=O`, the CC50 is 31.4 µM (inactive).
The same measure for `CCC(C)NC(=O)N1CC(Oc2ccc(-c3noc(C4CCOCC4)n3)cc2)C1` (stereo not drawn): 4.8 µM (active); for `O=C1c2sc3nccc(=O)n3c2C(=O)N1Cc1ccccc1`: 10.8 µM (active); for `Cn1ncc(N2CCC(C(=O)N3CCN(CCOc4ccc(Cl)cc4)CC3)C2)cc1=O` (stereo not drawn): 5 µM (active).
The value for `CC(C)c1cc(C(=O)NCc2ccc(N3CCO[C@@H](C)C3)nc2)n[nH]1` was 4.8 µM (active); that for `COc1ccccc1C(=O)Cc1nc2ccccc2o1` was 8 µM (inactive); that for `Cc1nc(-c2ccccn2)[nH]c(=O)c1CC(=O)N1CCC[C@H]1C1CCCCC1` was 6.7 µM (active).
The value for `COc1ccc(C(=O)N[C@@H]2CN(Cc3ccccc3)C[C@H]2CN(C)C)cc1` was 7.2 µM (active); that for `CCOc1ccc(NC(=O)c2nc(S(C)(=O)=O)ncc2Br)cc1` was 1.6 µM (active).
In the case of `CC1CCN(S(=O)(=O)c2ccc(-c3nnc(C(=O)NCCCN4CCCCCC4)o3)cc2)CC1`, the CC50 was 15.6 µM (inactive).
With `COc1ccc(-c2nc(CC3CCN(C(=O)NC(C)(C)C)C3)no2)cc1` (stereo not drawn), the CC50 is 7.8 µM (active).
Consider `CCN(CC)C(=O)N1CC(Oc2ccc(-c3noc(C4CCOCC4)n3)cc2)C1`, for which the CC50 is 2.3 µM (active).
Regarding `CCN(CC)C(=O)N1CC(Oc2ccc(-c3noc(-c4cccnc4)n3)cc2)C1`, the CC50 is 2.2 µM (active).
As for `CCCNC(=O)N1CC(Oc2ccc(-c3noc(C4CC4)n3)cc2)C1`, the CC50 is 6.1 µM (active).
Consider `NCc1ccc(C(=O)NC2CCc3c[nH]nc3C2)cc1` (stereo not drawn), for which the CC50 is 9.4 µM (active).
Turning to `CC(C)CCNC(=O)COc1ccc(-c2nc(C(C)C)no2)cc1`, the CC50 is 3.2 µM (active).
Turning to `CCc1ccc(S(=O)(=O)N2CCN(c3ccc(C(C)=O)cc3)CC2)cc1`, the CC50 is 50 µM (inactive).
On to `CN1CCC(NC(=O)c2ccc3c(c2)n(Cc2ccccc2)c(=O)c2ccnn23)CC1`, for which the CC50 is 9.8 µM (active).
Take `N#CCCn1c(=O)c(C(=O)NCCCc2ccccc2)c(O)c2ccccc21`: the CC50 is 5.9 µM (active).
Consider `CC1=C(c2ccccc2)C1C(=O)NC1(C(N)=O)CCCCC1` (stereo not drawn), for which the CC50 was 14.7 µM (active).
The same measure for `CC(=O)Nc1ccc(NC(=O)c2c(O)c3sccc3n(Cc3ccccc3)c2=O)cc1`: 50 µM (inactive); for `Cc1ccc(-c2cc3c(=O)n(Cc4noc(CN5CCN(C)CC5)n4)ccn3n2)cc1`: 9.4 µM (active).
For the compound `Cc1ccc(NC(=O)c2nc(S(C)(=O)=O)ncc2Br)cc1`, the CC50 was 2.7 µM (active).
The value for `CC(C)NC(=O)N1CC(Oc2ccc(-c3noc(C4CCOCC4)n3)cc2)C1` was 4.1 µM (active); that for `COc1ccc(NS(=O)(=O)c2ccc3onc(C(=O)N4CCCC4)c3c2)cc1OC` was 0.6 µM (active); that for `CCS(=O)(=O)c1ncc(Br)c(C(=O)Nc2ccc(C)cc2)n1` was 3.1 µM (active).
The value for `CCCNC(=O)N1CC(Oc2ccc(-c3noc(-c4ccncc4)n3)cc2)C1` was 3.1 µM (active); that for `Fc1cccc(OC2CCN(C[C@H]3[C@@H]4CNC[C@@H]43)CC2)c1` was 7.9 µM (active); that for `CCOc1ccc(OCC)c(NC(=O)c2ccc(N3CCN(C(C)C)CC3)cc2)c1` was 9.8 µM (active).
The same measure for `CCN1CCN(CCNC(=O)c2cn3ccnc(-c4ccc(C)cc4)c3n2)CC1`: 29 µM (inactive); for `CCC(C)NC(=O)N1CC(Oc2ccc(-c3noc(-c4ccncc4)n3)cc2)C1` (stereo not drawn): 3.8 µM (active); for `Cc1cc(C(=O)Nc2ccc(Cl)cc2F)nc2ccnn12`: 2.4 µM (inactive).
On to `CC(C)c1noc(-c2ccc(OCC(=O)NC(C)(C)C)cc2)n1`, for which the CC50 was 8.2 µM (active).
Consider `CC(NC(=O)N1CCCN(C)C2(CCNCC2)C1)c1ccccc1Cl` (stereo not drawn), for which the CC50 was 4.3 µM (active).
As for `CCn1c(-c2cccc(S(=O)(=O)N3CCOCC3)c2)cs/c1=N/c1ccccc1`, the CC50 is 5 µM (active).
The value for `COc1ccc(C(=O)N[C@@H]2CN(Cc3ccccc3)C[C@H]2CN(C)C)c(OC)c1` was 11.1 µM (active); that for `CN1C(=O)Cc2cc(S(=O)(=O)Nc3cccc4cccnc34)ccc21` was 6.9 µM (active).
As for `Cc1noc(C2CN(C3CCCC3)CCCN2C(=O)c2ccccc2)n1` (stereo not drawn), the CC50 is 6.6 µM (active).
The value for `CCCNC(=O)N1CC(Oc2ccc(-c3noc(-c4cccnc4)n3)cc2)C1` was 6 µM (active); that for `COc1ccc(OC)c(C(O)CN2CCN(c3cccc(C)c3C)CC2)c1` (stereo not drawn) was 9.9 µM (active); that for `O=C(CC1CCCN(c2cn[nH]c(=O)c2)C1)Nc1cccc(Cl)c1` (stereo not drawn) was 8.1 µM (active).
`O=C(c1ccncc1)N1CCC2(CC1)CC(Cc1nc(-c3ccncc3)no1)CCO2` (stereo not drawn): the CC50 was 5.2 µM (active).
Turning to `CCC(C)NC(=O)N1CC(Oc2ccc(-c3noc(-c4cccnc4)n3)cc2)C1` (stereo not drawn), the CC50 is 4.5 µM (active).
The value for `CN(Cc1cc(=O)n2cccc(O)c2n1)CC1(c2ccccc2)CC1(C)C` (stereo not drawn) was 2.9 µM (active); that for `COc1ccc(NC(=O)Nc2ccc3nc(S(C)(=O)=O)sc3c2)cc1` was 17.5 µM (inactive).
The same measure for `CC(C)CNC(=O)N1CC(Oc2ccc(-c3noc(-c4cccnc4)n3)cc2)C1`: 5.4 µM (active); for `CC(C)CNC(=O)N1CC(Oc2ccc(-c3noc(C4CCOCC4)n3)cc2)C1`: 4.3 µM (active).
Consider `OC(c1ccccc1)C(CN1CCCC1)c1ccccc1` (stereo not drawn), for which the CC50 was 8.8 µM (active).
Regarding `CC(=O)c1ccc(N2CCN(S(=O)(=O)c3ccc4onc(C(=O)N5CCCC5)c4c3)CC2)cc1`, the CC50 was 0.9 µM (active).
The same measure for `CN(C)CC1CCN(Cc2[nH]c3ccccc3c2Cl)C1` (stereo not drawn): 5.8 µM (active); for `Cc1ccn(-c2ccc(NC(=O)c3ccccn3)cc2)n1`: 4.5 µM (active).
In the case of `COc1ccc(NC(=O)c2nc(S(C)(=O)=O)ncc2Br)cc1`, the CC50 is 1.9 µM (active).
The same measure for `CS(=O)(=O)N1CCc2ccc(NC(=O)Nc3cccc(C#N)c3)cc21`: 9.7 µM (active).
The value for `CC1CCc2c(sc3ncnc(NN)c23)C1` (stereo not drawn) was 20.5 µM (inactive).
The same measure for `COc1ccc(NC(=O)Cn2sc3ccccc3c2=O)cc1OC`: 12.2 µM (active); for `Clc1cccc2[nH]nc(Br)c12`: 8.8 µM (active).
On to `Cc1ccc2nccc(N3CCCC(CCC(=O)N(C)C)C3)c2c1` (stereo not drawn), for which the CC50 is 8.3 µM (active).
In the case of `O=C(NCc1ccccc1)c1c(O)c2cccnc2n(Cc2ccccc2)c1=O`, the CC50 is 6.9 µM (active).
The same measure for `CCC(C)NC(=O)N1CC(Oc2ccc(-c3noc(C4CC4)n3)cc2)C1` (stereo not drawn): 3.5 µM (active); for `O=C(NC1CCCC1)N1CC(Oc2ccc(-c3noc(-c4cccnc4)n3)cc2)C1`: 6.9 µM (active).
The value for `NNc1ncnc2ccc(Br)cc12` was 2.4 µM (active).
Consider `CC(C)CNC(=O)COc1ccc(-c2nc(C(C)C)no2)cc1`, for which the CC50 is 8.1 µM (active).
The value for `Cn1c(N2CCN(Cc3ccccc3)CC2)nc2c1c(=O)n(Cc1ccccc1)c(=O)n2C` was 13.4 µM (inactive); that for `CCCNC(=O)N1CC(Oc2ccc(-c3noc(C4CCOCC4)n3)cc2)C1` was 3.7 µM (active); that for `Cc1cc(C)cc(N2CCC(NCC3CCCNC3)CC2)c1` (stereo not drawn) was 8.2 µM (active).
The same measure for `Cc1cc(F)ccc1N1CCC(NCC(O)c2cccc(O)c2)CC1` (stereo not drawn): 10.1 µM (active); for `O=C(Nc1nc(-c2cccnc2)cs1)c1ccccn1`: 11.6 µM (active); for `Cc1cccc(C(=O)N[C@@H]2CN(Cc3ccccc3)C[C@H]2CN(C)C)c1`: 10 µM (active).
For the compound `Cc1ccc(NC(=O)CCN(C)CC2CCN(C)C2(C)C)cc1F` (stereo not drawn), the CC50 was 9.7 µM (active).
The same measure for `COc1cccc(Cn2c(=O)c3ccnn3c3ccc(C(=O)NCCN(C)C)cc32)c1`: 12.3 µM (active); for `CCCS(=O)(=O)N1CCc2ccc(NC(=O)Nc3cccc(C#N)c3)cc21`: 10.2 µM (active); for `Cc1cc(N2CCNCC2)nc2c(C)cccc12`: 11.1 µM (active).
The same measure for `COc1ccc(CN2CCN(CCSC)CC2)c2c(OC)cccc12`: 12.6 µM (inactive); for `NCCCNc1nc(-c2ccccc2)nc2ccccc12`: 11.9 µM (active).
Consider `CC(C)NC(=O)N1CC(Oc2ccc(-c3noc(-c4cccnc4)n3)cc2)C1`, for which the CC50 was 3.4 µM (active).
The value for `Cn1c(CNC(=O)c2ccc3c(c2)n(C)c(=O)c2ccnn23)nc2ccccc21` was 16.4 µM (inactive); that for `CS(=O)(=O)c1ncc(Br)c(C(=O)Nc2ccc(F)cc2)n1` was 2.8 µM (active).
As for `CCN1CCN(Cc2cc(=O)oc3cc(-c4ccccc4)c(O)cc23)CC1`, the CC50 was 3.8 µM (active).

Source of the values: ChEMBL document CHEMBL5303711, “ECBD screening data for assay EOS300108” (2023).
